In publication PMC6270836, “Carapanolides J–L from the Seeds of Carapa guianensis (Andiroba) and Their Effects on LPS-Activated NO Production” (Molecules, 2014):
“And” between values parts separate entries of the source, which are not always exact repeats. Equal values may be shown once. “Also recorded” adds a separate entry of the source. Read-outs that look alike come from different tables or passages of the source.

How the values were obtained:
[1] = test system: NO production in LPS-stimulated RAW264.7 cells; assay: Inhibitory assay of NO production in LPS-stimulated RAW264.7 cells; type: cell-based, mouse; conditions: for Produced NO (%): LPS 5 μg/mL, DMSO control = 100%, mean ± S.E., n=3; for IC50: Mus musculus, read-out: IC50 (μM), produced NO
Protocol: (§1) Physiological nitric oxide (NO) is involved in blood pressure regulation and blood flow distribution, whereas its overexpression may induce tissue injury, multiple organ dysfunction, and death, as well as systemic inflammatory responses in sepsis, such as hypotension, cardiodepression, and vascular hyporeactivity. In the present study, four limonoids and L-NMMA, an inducible nitric oxide synthase (iNOS) inhibitor, were evaluated for their inhibitory effects on NO production in LPS-stimulated RAW264.7 cells (Table 3). To determine safe concentrations, the cytotoxicities of these limonoids against RAW 264.7 were assessed by the MTT assay.
An inhibitory assay of nitric oxide production was performed according to a method reported previously with slight modifications. Briefly, RAW264.7 cells (5 × 10^4 cells in 100 μL) were seeded onto 96-well microplates, and incubated for 24h. D-MEM (100 μL) containing test samples (final concentration of 100, 30, 10, or 3 μM) dissolved in DMSO (final concentration 0.2%) and LPS (final concentration of 5 μg/mL) were added. […] After being incubated for 30 min, the absorbance of each well was read at 570 nm using a microplate reader. The optical density of vehicle control cells was assumed to be 100%.

RAW264.7 cells = assay: RAW264.7 cell proliferation / cytotoxicity by MTT assay; conditions: 3–100 μM, MTT assay
Protocol: as §1
(§2) RAW264.7 cell proliferation was examined according to a method reported previously with some modifications. Briefly, RAW264.7 cells (5 × 10^4 cells in 100 μL) were seeded onto 96-well microplates, and incubated for 24 h. D-MEM (100 μL) containing test samples (final concentration of 100, 30, 10, or 3 μM) dissolved in DMSO (final concentration 0.2%) was added. […] After 3 h of incubation, 20% sodium dodecyl sulfate (SDS) in 0.1 M HCl was added to dissolve the formazan produced by the cells. The absorbance of each well was read at 570 nm using a microplate reader. The optical density of vehicle control cells was assumed to be 100%.

[2] = as above; conditions: mouse
Protocol: as §1, §2

[3] = LPS-stimulated RAW264.7 cells, 24 h

Compound | Produced NO (%) ([1]; 3 μM, 24 h) | Produced NO (%) ([1]; 10 μM, 24 h) | Produced NO (%) ([1]; 30 μM, 24 h) | Produced NO (%) ([1]; 100 μM, 24 h) | IC50 [1, 3] | Cytotoxicity against RAW 264.7 (in words) (RAW264.7 cells) | IC50 at 24 h ([2]; RAW264.7 cells) | viability at 24 h, 3 µM ([2]; RAW264.7 cells) | viability at 24 h, 10 µM ([2]; RAW264.7 cells) | viability at 24 h, 30 µM ([2]; RAW264.7 cells) | viability at 24 h, 100 µM ([2]; RAW264.7 cells) | IC50 ([1]; RAW264.7, 24 h) | IC50 at 24 h [2] | viability at 24 h, 3 µM [2] | viability at 24 h, 10 µM [2] | viability at 24 h, 30 µM [2] | viability at 24 h, 100 µM [2]
CC1(C)C(=O)C=CC2(C)C1CC(=O)C1(C)C2C(O)CC2(C)C(c3ccoc3)OC(=O)C3OC321 (stereo not drawn) [Compound 1, 11α-hydroxy-7-deacetoxy-7-oxogedunin] | 92.1 ± 1.5% | 83.4% and 83.4 ± 3.1% | 61.8% and 61.8 ± 1.8% | 16.8% and 16.8 ± 0.0% | 37.4 µM | non-toxicities; also recorded: no cytotoxicity | > 100 µM | 102.4 ± 0.8% | 101 ± 1.7% | 102.8 ± 0.6% | 103 ± 1.8% | – | – | – | – | – | –
C/C=C(\C)C(=O)OC1C2(C)CC3(O)C(C)(C4CCC5(C)C(=C4C(OC(=O)C(C)CC)C13O)C(OC(C)=O)C(=O)OC5c1ccoc1)C2CC(=O)OC (centres unmarked) [Compound 2, carapanolide K] | 78.6 ± 1.9% | 58.3 ± 2.8% | 25.8 ± 7.0% | 7.1 ± 1.2% | 12 µM | – | 15.2 µM | 81.4 ± 0.8% | 65.6 ± 0.2% | 33.6 ± 6.3% | 0.4 ± 0.4% | – | – | – | – | – | –
CCC(=O)OC1C2(O)C(OC(C)=O)C3(C)CC24OC2(C)OC15C1CC(=O)OC(c6ccoc6)C1(C)CCC5(O2)C41COC(=O)CC31 (centres unmarked) [Compound 3, carapanolide L] | 95.6 ± 2.5% | 95.4 ± 1.2% | 95.4 ± 2.9% | 78.4 ± 2.3% | – | non-toxicities | > 100 µM | 97.6 ± 0.6% | 97.3 ± 1.3% | 100.5 ± 0.4% | 94.4 ± 1% | > 100 µM | – | – | – | – | –
CC(=O)O[C@@H]1C[C@H]2C(C)(C)C(=O)C=C[C@]2(C)[C@H]2CC[C@@]3(C)[C@H](c4ccoc4)C(=O)[C@H]4O[C@]43[C@@]21C [Compound 4, epoxyazadiradione] | 74.0% and 74.0 ± 5.0% | 30.0% and 30.0 ± 2.3% | 7.5 ± 1.0% | 3.9 ± 1.8% | 5.9 µM | moderate cytotoxicities | – | – | – | – | – | – | 21.3 µM | 93.6 ± 1.4% | 99.7 ± 0.8% | 6.8 ± 0.3% | 3.3 ± 0.3%
[H]/N=C(/NC)NCCC[C@H](N)C(=O)O [L-NMMA, reference compound] | 93.0 ± 3.3% | 79.3% and 79.3 ± 0.8% | 58.2% and 58.2 ± 2.4% | 39.9% and 39.9 ± 1.7% | 53.7 µM | – | > 100 µM | 103.5 ± 0.5% | 102 ± 1.5% | 94.1 ± 1.4% | 96.5 ± 2.5% | – | – | – | – | – | –
